Earlier results, collected in EP2156182B1, “DETECTION OF AN ANALYTE IN A SAMPLE OF HEMOLYZED WHOLE BLOOD” (Roche Diagnostics GmbH, priority 2007, dated 2008).

What was measured:
[1] = relative to cyclosporin
[2] = therapeutic range, whole blood drug monitoring

Row | therapeutic trough concentration [2] [µg/L] | Compound | times more potent than cyclosporin in vitro [1]
1 | 5 to 20 | C=CC[C@@H]1/C=C(\C)C[C@H](C)C[C@H](OC)[C@H]2O[C@@](O)(C(=O)C(=O)N3CCCC[C@H]3C(=O)O[C@H](/C(C)=C/[C@@H]3CC[C@@H](O)[C@H](OC)C3)[C@H](C)[C@@H](O)CC1=O)[C@H](C)C[C@@H]2OC [Tacrolimus, tacrolimus] | up to 100 times
2 | 5 to 15 | CO[C@H]1C[C@@H]2CC[C@@H](C)[C@@](O)(O2)C(=O)C(=O)N2CCCC[C@H]2C(=O)O[C@H]([C@H](C)C[C@@H]2CC[C@@H](O)[C@H](OC)C2)CC(=O)[C@H](C)/C=C(\C)[C@@H](O)[C@@H](OC)C(=O)[C@H](C)C[C@H](C)/C=C/C=C/C=C/1C [sirolimus] | 
